Measurements: patent US20120295838A1, “Selective poly-substituted glycine antibiotics and related compositions” (priority 2008, published 2012)
Where “and” joins values, the source holds several entries; their conditions need not be identical. Identical values can stand only once. Like-named read-outs stand apart in the source and are kept apart here. Numbered stars: 1 amine (or outer) side, 2 acyl side, 3 side chain; on linkers, the order of the positions; unused ones are H or OH. Square brackets hold non-standard residues; d marks the D form. Ends that are not written are not given here. Peptide text beside a SMILES is read from it. Gly(N-CH2CH2-imidazol-4-yl) = O=C(O)CNCCc1c[nH]cn1; X1 = CC(C)[C@H](C)N(CC(=O)[*:2])[*:1]; Nspe = C[C@H](NCC(=O)O)c1ccccc1; Nphe = O=C(O)CNCc1ccccc1; Nlys = NCCCCNCC(=O)O

Key:
Type in all cases: cell-based
E. coli ATCC 35218 = conditions: for SR: Table 8, calculated as HD10/E. coli MIC; for Selectivity ratio SR E. coli: Table 6, ratio of 10% hemolytic dose to E. coli MIC
B. subtilis ATCC 6633 = conditions: for Selectivity ratio SR B. subtilis: Table 6, ratio of 10% hemolytic dose to B. subtilis MIC
How it was run: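 Broth microdilution MICs per CLSI M7-A6 in cation-adjusted Mueller-Hinton broth, using 1×10^6 CFU/mL inoculum added 1:1 to twofold serial peptoid dilutions. Values reproducible across three independent experiments, each with two parallel trials.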

human erythrocytes = assay: Hemolysis assay
How it was run: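 Heparinised fresh human erythrocytes, 20 vol % in PBS pH 7.4, mixed 1:1 with 1:2 serially diluted peptoid and incubated 1 h at 37 °C. PBS alone as 0% and 0.2 vol % Triton X-100 as 100% hemolysis; after 1200 g spin for 15 min, supernatant A350 read.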

[1] = system: Proteus mirabilis ATCC 35659; assay: Broad-spectrum antibacterial MIC; conditions: Table 7B; 10% hemolytic dose divided by MIC; P. mirabilis ATCC 35659
Procedure: (§1) Antibacterial assays. MICs were determined according to CLSI M7-A6 protocols in a 96-well microtiter plate. In test wells, 50 uL bacterial inoculum (5×10^5 CFU/ml) in Mueller-Hinton broth (MHB) was added to 50 μL peptoid solution in MHB (prepared by 1:2 serial dilutions). Positive controls contained 50 μL inoculum and 50 μL MHB without peptoid. […] MIC values reported were reproducible between three independent experimental replicates, each consisting of two parallel trials. Broad-spectrum antimicrobial susceptibility testing was performed against BSL2 pathogens by Nova Biologicals, Inc. (Conroe, Tex.).
(§2) Broad-spectrum antibacterial assays. MICs of compounds were determined by microdilution procedure in Mueller-Hinton broth (MHB) in accordance with CLSI M7-A6 protocols in a manner similar to that described for the screen antibacterial assays. Inoculated microtiter plates were incubated at 35° C. for 24 hours prior to the result being recorded. Four ATCC strains that were used as standards are recommended by CLSI: Pseudomonas aeruginosa ATCC 27853, Escherichia coli ATCC 25922, Staphylococcus aureus ATCC 29213 and Enterococcus faecalis ATCC 29212. Other strains from the ATCC collection include Proteus vulgaris ATCC 49132, Proteus mirabilis ATCC 35659, Klebsiella pneumoniae ATCC 33495, Enterobacter aerogenes ATCC 35029 and Serratia marcescens ATCC 13880. S. aureus NRS100 (COL) is a well characterized methicillian-resistant S. aureus (MRSA) strain. The strains S. aureus VAN1 and S. aureus VAN2, vancomycin-resistant MRSA strains that were isolated in Michigan and Pennsylvania, were the first vancomycin-resistant strains clinically isolated. S. aureus NRS 119 and S. aureus NRS 120 are linezolid-resistant isolates from the Network on Antimicrobial Resistance in S. aureus (NARSA) collection. E. faecalis 99 and E. faecium 106 are vancomycin-resistant enterococcal strains.

[2] = system: Serratia marcescens ATCC 13880; assay: Broad-spectrum antibacterial MIC; conditions: Table 7B; 10% hemolytic dose divided by MIC; S. marcescens ATCC 13880
Procedure: as §1, §2

Compound	MIC for E. coli ATCC 35218 (E. coli ATCC 35218)	SR (E. coli ATCC 35218)	MIC for B. subtilis ATCC 6633 (B. subtilis ATCC 6633)	HD10 (human erythrocytes)	HD50 (human erythrocytes)	Selectivity ratio SR E. coli (E. coli ATCC 35218)	Selectivity ratio SR E. coli (E. coli ATCC 35218; listed as 1-Nspd2,5,8,11)	Selectivity ratio SR B. subtilis (B. subtilis ATCC 6633)	Selectivity ratio (SR) [1]	Selectivity ratio (SR) [2]	HD10 (human erythrocytes; human, 1 h, pH 7.4)	HD50 (human erythrocytes; human, 1 h, pH 7.4)
C[C@@H](c1ccccc1)N(CC(=O)N(CCc1cnc[nH]1)CC(=O)N(CCCCN)CC(=O)N(CC(=O)N(CC(=O)N(CCCCN)CC(=O)N(CC(=O)N(CCc1cnc[nH]1)CC(N)=O)[C@@H](C)c1ccccc1)[C@@H](C)c1ccccc1)[C@@H](C)c1ccccc1)C(=O)CN(CCCCN)C(=O)CN(C(=O)CN(C(=O)CNCCCCN)[C@@H](C)c1ccccc1)[C@@H](C)c1ccccc1 [1-Nhis6,12, H-(Nlys-Nspe-Nspe-Nlys-Nspe-Nhis)2-NH2] (H-[Nlys][Nspe][Nspe][Nlys][Nspe][Gly(N-CH2CH2-imidazol-4-yl)][Nlys][Nspe][Nspe][Nlys][Nspe][Gly(N-CH2CH2-imidazol-4-yl)]-NH2)	50 µM	>4.0	0.78 to 1.6 µM	>200/>200 μM	>200/>200 μM	–	–	–	–	–	–	–
CC(C)[C@H](C)N(CC(=O)N(CC(=O)N(CCCCN)CC(=O)N(CC(=O)N(CC(=O)N(CCCCN)CC(=O)N(CC(=O)N(CC(=O)N(CCCCN)CC(=O)N(CC(=O)N(CC(N)=O)[C@@H](C)c1ccccc1)[C@@H](C)C(C)C)[C@@H](C)c1ccccc1)[C@@H](C)C(C)C)[C@@H](C)c1ccccc1)[C@@H](C)C(C)C)[C@@H](C)c1ccccc1)C(=O)CNCCCCN [1-Nsdp2,5,8,11, H-(Nlys-Nsdp-Nspe)4-NH2] (H-[Nlys][X1][Nspe][Nlys][X1][Nspe][Nlys][X1][Nspe][Nlys][X1][Nspe]-NH2)	–	–	–	–	–	> 9.7 and 9.7	9.7	142	<1.5	<1.5	–	–
NCCCCNCC(=O)N(CC(=O)N(CC(=O)N(CCCCN)CC(=O)N(CC(=O)N(CC(=O)N(CCCCN)CC(=O)N(CC(=O)N(CC(=O)N(CCCCN)CC(=O)N(CC(=O)N(CC(N)=O)Cc1ccccc1)Cc1ccccc1)Cc1ccccc1)Cc1ccccc1)Cc1ccccc1)Cc1ccccc1)Cc1ccccc1)Cc1ccccc1 [1achiral, H-(Nlys-Npm-Npm)4-NH2] (H-[Nlys][Nphe][Nphe][Nlys][Nphe][Nphe][Nlys][Nphe][Nphe][Nlys][Nphe][Nphe]-NH2)	12.5 µM	14	1.6 µM	180 µM	> 200 µM	15	–	235	<2.4	2.4	–	–
GIGKFLKKAKKFGKAFVKILKK-NH2 [pexiganan, reference compound]	3.1 to 6.3 µM	12	–	–	–	11	–	44	<1.4	<1.4	73 µM	> 200 µM
